Test results reported in patent US20150119363A1, “METHODS OF TREATING BACTERIAL INFECTIONS” (Rampex Pharmaceuticals, Inc., priority 2012, published 2015).
≈ marks a conversion by molar mass, not a printed value. Read-outs that look alike come from different tables or passages of the source.

Tests used:
Assay type in all cases: cell-based
[1] = tested on: E. coli EC1061 (NDM-1 CMY-6); experiment: Aztreonam/Tigemonam MIC at various concentrations of BLI; details: Compound 68 0 μg/ml
[2] = tested on: K. pneumoniae KP1081 (NDM-1, CMY-6, SHV-11, CTX-M-15, TEM-1); experiment: as above; details: KP1081
Description: (§1) MIC values for each bacterial strain were measured for each antimicrobial compound at various concentrations of each BLI.

[3] = tested on: E. coli EC1061 (NDM-1 CMY-6); experiment: as above; details: for MIC: Escherichia coli, E. coli EC1061, read-out: Tigemonam MIC
Description: MIC values for each bacterial strain were measured for each antimicrobial compound at various concentrations of each BLI. […]

[4] = tested on: bacterial strains that expressed the beta-lactamase, NDM-1 and CMY-6; experiment: Aztreonam/Tigemonam MIC at various concentrations of BLI (summary)
Description: as §1

Tigemonam MIC (μg/ml) in the presence of BLI [1] [µg/mL]	Tigemonam MIC (μg/ml) in the presence of BLI ([2]; Compound 5 0 μg/ml) [µg/mL]	Tigemonam MIC (μg/ml) in the presence of BLI ([2]; Compound 68 0 μg/ml) [µg/mL]	Tigemonam MIC (μg/ml) in the presence of BLI ([3]; EC1061, Compound 5 0 μg/ml) [µg/mL]	MIC ([3]; tigemonam alone) [µg/mL]	SMILES	effect on Aztreonam or Tigemonam MICs [4]	MIC ([3]; with 0.31 μg/ml Compound A) [µg/mL]
16	16	16	8	8 (≈ 18.3 µM)	CC1(C)[C@H](NC(=O)/C(=N\OCC(=O)O)c2csc(N)n2)C(=O)N1OS(=O)(=O)O [Tigemonam, reference compound]		
					O=C(O)C[C@H]1C=CC[C@H](NC(=O)Cc2cccs2)B(O)O1 [Compound 68, 2-((3R,7S)-2-hydroxy-3-(2-(thiophen-2-yl)acetamido)-2,3,4,7-tetrahydro-1,2-oxaborepin-7-yl)acetic acid]	decreased the Aztreonam or Tigemonan MICs	0.5 (≈ 1.62 µM)
